Results published in patent publication US20240239775A1, “FXR REGULATOR, PREPARATION METHOD THEREFOR, PHARMACEUTICAL COMPOSITION THEREOF AND USE THEREOF” (QINGDAO RUIJI MEDICAL TECHNOLOGY CO., LTD., priority 2021, published 2024).
pIC50: −log10 of the molar value.

Each molecule was assayed against T1, FXR (Homo sapiens, UniProt Q96RI1) (assay: FXR antagonist screening by TR-FRET (LanthaScreen TR-FRET FXR co-activation assay kit)). Conditions: Table 1.1, FXR antagonistic activity; TR-FRET with CDCA; geometric means of at least two independent runs.
T1 construct: 5 μL of 20 nM FXR-LBD Complete Coregulator buffer G; purchased ThermoFisher PV4833
T1 sequence (Q96RI1 262-486 limits assumed): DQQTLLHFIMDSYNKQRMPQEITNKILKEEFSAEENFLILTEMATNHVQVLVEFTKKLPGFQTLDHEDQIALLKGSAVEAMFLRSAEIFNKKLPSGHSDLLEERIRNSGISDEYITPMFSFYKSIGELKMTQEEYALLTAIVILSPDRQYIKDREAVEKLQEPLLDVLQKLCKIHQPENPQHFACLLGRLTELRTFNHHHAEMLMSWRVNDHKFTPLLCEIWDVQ
Assay type: biochemical
Procedure, shortened: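 FXR-LBD (20 nM working solution) mixed with compound, CDCA (200 μM working solution) as agonist, Fluorescein-SRC2-2 and Tb-anti-GST antibody in Coregulator buffer G; 10 h at room temperature. Coactivator recruitment read by TR-FRET, triplicate wells.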

Row | Compound | pIC50
1 | Cc1c(C(=O)O)oc2ccc(S(=O)(=O)N(CCc3ccccc3)Cc3ccc(N4CCN(C(=O)OC(C)(C)C)CC4)cc3)cc12 [Example F27-S81, 3-methyl-5-(N-(4-(4-(tert-butoxycarbonyl)piperazin-1-yl)benzyl)-N-phenethylsulfamoyl)benzofuran-2-carboxylic acid] | 4.30 to 5.00
2 | CCOC(=O)c1oc2ccc(S(=O)(=O)N(CCc3ccccc3)c3ccccc3N3CC[N+](C)(C)CC3)cc2c1C [Example M10-90, 4-(2-((2-(ethoxycarbonyl)-3-methyl-N-phenethylbenzofuran)-5-sulfonylamino)phenyl)-1,1-dimethylpiperazin-1-ium] | 4.00 to 4.30
3 | CCOC(=O)c1oc2ccc(S(=O)(=O)N(CCc3ccccc3)c3ccccc3N3CCN(Cc4ccccc4)CC3)cc2c1C [Example M10-95] | 4.00 to 4.30
4 | CCOC(=O)c1oc2ccc(S(=O)(=O)N(CCc3ccccc3)Cc3ccccc3N3CCN(S(C)(=O)=O)CC3)cc2c1C [Example M10-102, ethyl 3-methyl-5-(N-(2-(4-methanesulfonylpiperazin-1-yl)benzyl)-N-phenethylsulfamoyl)benzofuran-2-carboxylate] | 4.00 to 4.30
5 | CCOC(=O)c1oc2ccc(S(=O)(=O)N(CCc3ccccc3)Cc3ccccc3N3CCN(C)CC3)cc2c1C [Example M10-98, ethyl 3-methyl-5-(N-(2-(4-methylpiperazin-1-yl)benzyl)-N-phenethylsulfamoyl)benzofuran-2-carboxylate] | 4.00 to 4.30
6 | CCOC(=O)c1oc2ccc(S(=O)(=O)N(CCc3ccccc3)Cc3ccc(C(C)(C)C)cc3)cc2c1C [Example M4-37, ethyl 3-methyl-5-(N-(4-(tert-butyl)benzyl)-N-phenethylsulfamoyl)benzofuran-2-carboxylate] | 4.00 to 4.30
7 | CCOC(=O)c1oc2ccc(S(=O)(=O)N(CCc3ccccc3)c3ccc(N4CCN(C(=O)OC(C)(C)C)CC4)nc3)cc2c1C [Example M8-75, ethyl 3-methyl-5-(N-(6-(4-(tert-butoxycarbonyl)piperazin-1-yl)pyridin-3-yl)-N-phenethylsulfamoyl)benzofuran-2-carboxylate] | 4.00 to 4.30
8 | Cc1c(C(=O)O)oc2ccc(S(=O)(=O)N(CCc3ccccc3)c3ccc(N4CCN(S(C)(=O)=O)CC4)cc3)cc12 [Example F27-S72, 3-methyl-5-(N-(4-(4-(methylsulfonyl)piperazin-1-yl)phenyl)-N-phenethylsulfamoyl)benzofuran-2-carboxylic acid] | 4.00 to 4.30
9 | CCOC(=O)c1oc2ccc(S(=O)(=O)N(CCc3ccccc3)Cc3ccc(/C=C/C(=O)OC)cc3)cc2c1C [Example M4-42, (E)ethyl-3-methyl-5-(N-(4-(3-methoxy-3-oxoprop-1-en-1-yl)benzyl)-N-phenethylsulfamoyl)benzofuran-2-carboxylate] | 4.00 to 4.30
10 | CCOC(=O)c1oc2ccc(S(=O)(=O)N(CCc3ccccc3)Cc3cccc4cccnc34)cc2c1C [Example M4-44, ethyl 3-methyl-5-(N-(quinolin-8-ylmethyl)-N-phenethylsulfamoyl)benzofuran-2-carboxylate] | 4.00 to 4.30
11 | CCOC(=O)c1oc2ccc(S(=O)(=O)N(CCc3ccccc3)Cc3ccc(C)cc3)cc2c1C [Example M4-31, ethyl 3-methyl-5-(N-(4-methylbenzyl)-N-phenethylsulfamoyl)benzofuran-2-carboxylate] | 4.00 to 4.30
12 | CCOC(=O)c1oc2ccc(S(=O)(=O)N(CCc3ccccc3)Cc3ccc(C(F)(F)F)cc3)cc2c1C [Example M4-32, ethyl 3-methyl-5-(N-(4-trifluoromethylbenzyl)-N-phenethylsulfamoyl)benzofuran-2-carboxylate] | 4.00 to 4.30
13 | CCOC(=O)c1oc2ccc(S(=O)(=O)N(CCc3ccccc3)Cc3ccc(Oc4ccccc4)cc3)cc2c1C [Example M8-86, ethyl 3-methyl-5-(N-phenethyl-N-(4-phenoxybenzyl)sulfamoyl)benzofuran-2-carboxylate] | 4.00 to 4.30
14 | CCOC(=O)c1oc2ccc(S(=O)(=O)N(CCc3ccccc3)Cc3ccc(C(C)C)cc3)cc2c1C [Example M4-36, ethyl 3-methyl-5-(N-(4-isopropylbenzyl)-N-phenethylsulfamoyl)benzofuran-2-carboxylate] | 4.00 to 4.30
15 | CCOC(=O)c1oc2ccc(S(=O)(=O)N(CCc3ccccc3)c3ccc(CN4CCN(C(=O)OC(C)(C)C)CC4)cc3)cc2c1C [Example M8-76, ethyl 3-methyl-5-(N-(4-((4-(tert-butoxycarbonyl)piperazin-1-yl)methyl)phenyl)-N-phenethylsulfamoyl)benzofuran-2-carboxylate] | 4.00 to 4.30

Same assay, conditions: Table 1.2, FXR antagonistic activity; TR-FRET with CDCA; geometric means of at least two independent runs

Row | Compound | pIC50
16 | CCOC(=O)c1cc2ccc(S(=O)(=O)N(CCc3ccccc3)c3ccccc3N3CCN(C(=O)c4sccc4Br)CC3)cc2o1 [Example M10-164, Ethyl 6-(N-(2-(4-(3-bromothiophene-2-formyl)piperazin-1-yl)phenyl)-N-phenethylsulfamoyl)benzofuran-2-carboxylate] | 4.00 to 4.30
17 | Cc1c(C(=O)O)oc2ccc(S(=O)(=O)N(CCc3ccccc3)c3ccccc3N3CCC4(CCN(C(=O)c5sccc5Br)C4)CC3)cc12 [Example F27-S148] | 5.00 to 7.00
18 | Cc1ccccc1C(=O)N1CCN(c2ccccc2N(CCc2ccccc2)S(=O)(=O)c2ccc3oc(C(=O)O)c(C)c3c2)CC1 [Example F27-S107, 3-methyl-5-(N-(2-(4-(2-methylbenzoyl)piperazin-1-yl)phenyl)-N-phenethylsulfamoyl)benzofuran-2-carboxylic acid] | 5.00 to 7.00
19 | CCOC(=O)c1sc2ccc(S(=O)(=O)N(CCc3cccc(Cl)c3)c3ccccc3N3CCN(C(=O)c4sccc4Br)CC3)cc2c1C [Example M10-171, Ethyl 5-(N-(2-(4-(3-bromothiophene-2-carbonyl)piperazin-1-yl)phenyl)-N-(3-chlorophenylethyl)sulfamoyl)-3-methylbenzothiophene-2-carboxylate] | 4.00 to 4.30
20 | CCOC(=O)c1sc2ccc(S(=O)(=O)N(CCc3ccc(C(=O)OC)cc3)c3ccccc3N3CCN(C(=O)c4sccc4Br)CC3)cc2c1C [Example M10-167, ethyl 5-(N-(2-(4-(3-bromothiophene-2-carbonyl)piperazin-1-yl)phenyl)-N-(4-(methoxycarbonyl)phenethyl)sulfamoyl)-3-methylbenzothiophene-2-carboxylate] | 4.00 to 4.30
21 | O=C(O)c1[nH]c2ccc(S(=O)(=O)N(CCc3ccccc3)c3ccccc3N3CCN(C(=O)c4sccc4Br)CC3)cc2c1Cl [Example F27-S161, 5-(N-(2-(4-(3-bromothiophene-2-carbonyl)piperazin-1-yl)phenyl)-N-phenethylsulfamoyl)-3-chloro-1H-indole-2-carboxylic acid] | 5.00 to 7.00
22 | CCOC(=O)c1oc2ccc(S(=O)(=O)N(CCc3ccccc3)c3ccccc3N3CCN(C(=O)c4ccc(NC(=O)OC(C)(C)C)cc4)CC3)cc2c1C [Example M10-113, Ethyl-(N-(2-(4-(4-((tert-butoxycarbonyl)amino)benzoyl)piperazin-1-yl)phenyl)-N-phenethylsulfamoyl)-3-methylbenzofuran-2-carboxylate] | 4.00 to 4.30
23 | CCOC(=O)c1oc2ccc(S(=O)(=O)N(CCc3ccccc3)c3ccccc3N3CC4(CCN(C(=O)c5sccc5Br)CC4)C3)cc2c1C [Example M10-149, Ethyl 5-(N-(2-(7-(3-bromothiophene-2-carbonyl)-2,7-diazaspiro[3.5]nonan-2-yl)phenyl)-N-phenethylsulfamoyl)-3-methylbenzofuran-2-carboxylate] | 4.00 to 4.30
24 | CCOC(=O)c1oc2ccc(S(=O)(=O)N(CCc3ccccc3)c3ccccc3N3CCN(C(=O)C4CCCC4)CC3)cc2c1C [Example M10-122, Ethyl 5-(N-(2-(4-(cyclopentanecarbonyl)piperazin-1-yl)phenyl)-N-phenethylsulfamoyl)-3-methylbenzofuran-2-carboxylate] | 4.00 to 4.30
25 | CCOC(=O)c1oc2ccc(S(=O)(=O)N(CCc3ccccc3)c3ccccc3N3CCN(C(=O)c4ccc[nH]4)CC3)cc2c1C [Example M10-124, Ethyl 5-(N-(2-(4-(1H-pyrrole-2-carbonyl)piperazin-1-yl)phenyl)-N-phenethylsulfamoyl)-3-methylbenzofuran-2-carboxylate] | 4.00 to 4.30
26 | CCOC(=O)c1oc2ccc(S(=O)(=O)N(CCc3ccccc3)c3ccccc3N3CCN(C(=O)c4c(C)cc(C)cc4C)CC3)cc2c1C [Example M10-135, Ethyl 5-(N-(2-(4-(2,4,6-trimethylbenzoyl)piperazin-1-yl)phenyl)-N-phenethylsulfamoyl)3-methylbenzofuran-2-carboxylate] | 4.00 to 4.30
27 | CCOC(=O)c1oc2ccc(S(=O)(=O)N(CCc3ccccc3)c3ccccc3N3CCN(C(=O)c4cccs4)CC3)cc2c1C [Example M10-118, Ethyl 3-methyl-5-(N-phenethyl-N-(2-(4-(thiophene-2-carbonyl)piperazin-1-yl)phenyl)sulfamoyl)benzofuran-2-carboxylate] | 4.00 to 4.30
28 | CCOC(=O)c1[nH]c2ccc(S(=O)(=O)N(CCc3ccccc3)c3ccccc3N3CCN(C(=O)c4sccc4Br)CC3)cc2c1Cl [Example M10-161, Ethyl 5-(N-(2-(4-(3-bromothiophene-2-carbonyl)piperazin-1-yl)phenyl)-N-phenethylsulfamoyl)-3-chloro-1H-indole-2-carboxylate] | 4.00 to 4.30
29 | Cc1c(C(=O)O)oc2ccc(S(=O)(=O)N(CCc3ccccc3)c3ccccc3N3CCN(C(=O)c4sccc4Br)C[C@H]3C)cc12 [Example F27-S153, (R)-5-(N-(2-(4-(3-bromothiophene-2-carbonyl)-2-methylpiperazin-1-yl)phenyl)-N-phenethylsulfamoyl)-3-methylbenzofuran-2-carboxylic acid] | 5.00 to 7.00
